Results reported in patent US10221198B2, “Preparation and medical use of triazenes” (Ecole Polytechnique Federale De Lausanne (EPFL), priority 2014, dated 2019).

How the values were obtained:
Assay type in all cases: cell-based
[1] = tested on: human mammary epithelial cells (MCF-10A); assay: Cytotoxicity test (MTT assay) on MCF-10A cells; conditions: 72 h exposure
Method: (§1) MDA-MB-231 breast adenocarcinoma cells (ATCC® HTB-26™), MCF-10a human mammary epithelial cells (ATCC® CRL-10317™) and HEK293 human embryonic kidney cells (ATCC® CRL-1573™) were obtained from ATCC (Middlesex, UK), the A2780 human ovarian carcinoma cell line was obtained from the European Collection of Cell Cultures (catalogue number 93112519, Salisbury, U.K.). All cell culture media were purchased from Life Technologies (Zug, Switzerland). A2780 cells were cultured in RPMI-1640 medium (Gibco, GlutaMax), while MDA-MB-231 and HEK293 cells were cultured in Dulbecco's Modified Eagle Medium (DMEM, Gibco, GlutaMax) supplemented with 10% fetal bovine serum (FBS, Sigma-Aldrich, Buchs, Switzerland) and 1% penicillin/streptomycin (Life Technologies, Zug, Switzerland). MCF-10A were cultured in DMEM/F12 medium containing 10% horse serum and 1% antibiotics, supplemented with 10 μg/mL insulin, 20 μg/mL hydrocortisone, 20 ng/mL epidermal growth factor and 100 ng/mL cholera toxin (all from Sigma Aldrich, Buchs, Switzerland). Cells were incubated in a CO2 incubator with 5% CO2 and 100% relative humidity at 37° C. MTT (MTT=3-(4,5-dimethyl-2-thiazolyl)-2,5-diphenyl-2H-tetrazolium bromide) was purchased from Calbiochem (Zug, Switzerland). Cell viability was determined by the MTT assay. The absorption was read using a SpectraMax M52 microplate reader (Molecular Devices, Sunnyvale, Calif., USA).
(§2) Cells were seeded in 96-well plates as monolayers with 100 μL of cell suspension (approximately 5000 cells) per well and preincubated for 24 h in medium supplemented with 10% FBS. With the exception of dacarbazine, all compounds were dissolved in DMSO. In the case of dacarbazine, an aqueous stock solution of the monocitrate was prepared in situ and immediately used (light sensitivity). The stock solutions were serially diluted in the culture medium to the appropriate concentration, to give a final DMSO concentration of no higher than 0.5%. 100 μL of the compound solution was added to each well, and the plates were incubated for 72 h. Subsequently, MTT (5 mg/mL solution) was added to the cells and the plates were incubated for a further 2 h. The culture medium was aspirated and the purple formazan crystals formed by the mitochondrial dehydrogenase activity of vital cells were dissolved in DMSO. The optical density, directly proportional to the number of surviving cells, was quantified at 590 nm using a multiwell plate reader, and the fraction of surviving cells was calculated from the absorbance of untreated control cells. Evaluation is based on means from at least two independent experiments, each comprising triplicates per concentration level.

[2] = tested on: non-cancer human embryonic kidney cells (HEK293); assay: Cytotoxicity test (MTT assay) on HEK293 cells; conditions: 72 h exposure
Method: as §1, §2

[3] = tested on: human ovarian cancer cells (A2780); assay: Cytotoxicity test (MTT assay) on A2780 cells; conditions: 72 h exposure
Method: as §1, §2

[4] = tested on: human invasive breast cancer cells (MDA-MB-231); assay: Cytotoxicity test (MTT assay) on MDA-MB-231 cells; conditions: for IC50: MDA-MB-231, 72 h exposure, MTT assay, human invasive breast cancer cells; for SC, selectivity coefficient, IC50 MCF-10A/IC50 MDA-MB-231: ratio of 72 h IC50 values, MCF-10A over MDA-MB-231
Method: as §1, §2

| Compound | IC50 [1] [µM] | IC50 [2] [µM] | IC50 [3] [µM] | IC50 [4] [µM] | SC, selectivity coefficient, IC50 MCF-10A/IC50 MDA-MB-231 [4] |
| --- | --- | --- | --- | --- | --- |
| CC(C)N(N=NC#Cc1ccccc1)C(C)C [Compound 1, 3,3-Diisopropyl-1-(phenylethynyl)triaz-1-ene] | 116 ± 2 | 44 ± 11 | 56 ± 4 | > 500 |  |
| CC(C)N(N=NC#CC(C)(C)C)C(C)C [Compound 2, 1-(3,3-Dimethylbut-1-ynyl)-3,3-diisopropyltriaz-1-ene] | 299 ± 43 | 125 ± 5 | 160 ± 40 | 176 ± 60 | 1.7 |
| CC(C)N(C)N=NC#CC(C)(C)C [Compound 4, 1-(3,3-Dimethylbut-1-ynyl)-3-isopropyl-3-methyltriaz-1-ene] | 192 ± 12 | 29 ± 4 | 32 ± 4 | 70 ± 10 | 2.7 |
| CN(C)N=NC#CC(C)(C)C [Compound 5, 1-(3,3-Dimethylbut-1-ynyl)-3,3-dimethyltriaz-1-ene] | 52 ± 11 | 19 ± 2 | 22 ± 3 | 38 ± 3 | 1.4 |
| CCCCC#CN=NN(C(C)C)C(C)C [Compound 6, 1-(Hex-1-ynyl)-3,3-diisopropyltriaz-1-ene] | 254 ± 52 | 165 ± 65 | 143 ± 29 | 199 ± 21 | 1.2 |
| COCC#CN=NN(C)C(C)C [Compound 9, 3-Isopropyl-1-(3-methoxyprop-1-ynyl)-3-methyltriaz-1-ene] | 208 ± 49 | 14 ± 1 | 20 ± 3 | 32 ± 4 | 6.5 |
| CC(C)N(C)N=NC#CCN(C)C [Compound 10, 3-(3-Isopropyl-3-methyltriaz-1-enyl)-N,N-dimethylprop-2-yn-1-amine] | 86 ± 4 | 21 ± 5 | 34 ± 4 | 14 ± 2 | 6.1 |
| COCC#CN=NN(C)C [Compound 14, 1-(3-Methoxyprop-1-ynyl)-3,3-dimethyltriaz-1-ene] | 177 ± 23 | 24 ± 4 | 43 ± 6 | 72 ± 9 | 2.5 |
| CN(C)CC#CN=NN(C)C [Compound 15, 3-(3,3-Dimethyltriaz-1-enyl)-N,N-dimethylprop-2-yn-1-amine] | 113 ± 7 | 15 ± 4 | 47 ± 3 | 45 ± 15 | 2.4 |
